# Assay results: patent US3960860A, “2-Methyl-5,7-dihydrothieno-[3,4d]-pyrimidine” (priority 1975, dated 1976)
# Assays:
# [1] = fragrance of perfume composition; details: thienopyrimidine replaces 20 parts of caraway essence
# [2] = character of vanilla flavor; details: 0.2 parts of 0.1% in propylene glycol; compared with the material omitted
# Experimental: A vanilla flavor is prepared by admixing the following ingredients: […]
# [3] = taste of aqueous solutions; details: by itself at levels of 10 parts in 10^10, aqueous solutions
# Description: (§1) It can thus be used as an enhancer to reduce the quantity of artificial sweeteners required or to permit diminution of the quantity of natural sweeteners such as sugar.
# [4] = organoleptic evaluation (odor and flavor) of the pyrimidine
# [5] = acute oral toxicity (LD50, no-effect dose); details: in vivo
# [6] = comparison of toxicity and potency with the chloroanalog; details: versus other analogs, such as its chloroanalog
# [7] = enhancement of the sweetness of foods; details: in foods; levels as low as
# Description: as §1
# [8] = 0.1% alcohol solution on a blotter strip
compound,measurement,setting,value
"Cc1ncc2c(n1)CSC2 [2-methyl-5,7-dihydrothieno-[3,4d]-pyrimidine]",caraway note after replacement of caraway essence,[1],the natural caraway note of the original perfume is retained
same,quality of vanilla flavor,[2],"distinctly ""natural"" quality"
same,aftertaste imparted to aqueous solutions,[3],"sweet, pleasant, and non-bitter aftertaste"
same,odor/flavor character in aqueous solution,[4]; 0.001 ppm in aqueous solution,"sweet roasted nut, popcorn character with a light astringency"
same,flavor in water,[4]; 0.003 ppm in water,"popcorn, roasted peanut flavor with an astringency like peanut skins"
same,odor,[4]; [8],"sharp, fresh roasted, sweet nut with a popcorn character"
same,persistence of odor,[4]; [8],the odor seems to disappear because of anosmia
same,flavor effect in chicken broth,[4]; 10^^-6 ppm in chicken broth,accentuates the root vegetable flavor notes
same,odor of the crystalline material,[4]; colorless crystalline material,"powerful odor of roasted fresh, sweet nut with a definite popcorn character"
same,NOAEL,"[5]; po, test animals, read-out: maximum no effective dose or the lowest dosage level at which essentially no signs of toxicity in test animals is observed",34 mg/kg
same,LD50,"[5]; acute, oral",260 ± 40 mg/kg
same,potency relative to other analogs,[6],less potent
same,toxicity relative to other analogs,[6],less toxic
same,level at which the material begins to enhance the sweetness of foods,[7],10 parts in 10^12
